Measured values: patent US20260070929A1, “METHODS AND COMPOSITIONS FOR MODULATING KRAS(G12D)” (Ranok Therapeutics (Hangzhou) Co. LTD., priority 2022, published 2026)

Key:
[1] = test system: AGS gastric carcinoma cells [heterozygous G12D]; assay: Cancer cell line proliferation (CellTiter-Glo), AGS; assay type: cell-based; details: Homo sapiens, 72 hr treatment, read-out: AGS CTG (EC50)
Procedure, shortened: (§1)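 A 72 hr proliferation format is used: cells at 4,000/well, pre-grown 72 hr, then treated at 37° C./5% CO2 with 0.5% DMSO final. CellTiter-Glo measures viable cells, from which EC50 is calculated.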

[2] = test system: A-427 lung carcinoma cells [heterozygous G12D]; assay: Cancer cell line proliferation (CellTiter-Glo), A-427; assay type: cell-based; details: Homo sapiens, A-427 cells, 72 hr treatment, read-out: A427 CTG (EC50)
Procedure, shortened: as §1

[3] = molecular target: T1, KRAS(G12D)/SOS1 (Homo sapiens, UniProt P01116, G12D); assay: KRAS(G12D)/SOS1 homogeneous time-resolved fluorescence (HTRF) assay; assay type: binding; details: absence of GTP; 4° C., 3 hr
T1 construct: purchased Cisbio 63ADK000CB17PEH
T1 sequence (P01116 1-188 isoform P01116-2 G12D): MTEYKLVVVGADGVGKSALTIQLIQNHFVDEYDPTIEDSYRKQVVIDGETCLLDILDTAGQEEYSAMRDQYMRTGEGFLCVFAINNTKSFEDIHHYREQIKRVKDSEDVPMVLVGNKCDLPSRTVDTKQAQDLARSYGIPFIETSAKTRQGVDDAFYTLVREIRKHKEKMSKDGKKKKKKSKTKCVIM
Procedure, shortened: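 HTRF kit assay of compound-blocked KRAS(G12D)–SOS1 interaction, run without GTP. Compounds were tested as 3-fold dilutions from 20 µM to 1.02 nM and incubated with the reaction components for 3 hr at 4 °C, sealed. IC50 was taken as the concentration giving 50% of maximal inhibition.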

[4] = test system: ASPC1 pancreatic adenocarcinoma cells [homozygous G12D]; assay: Cancer cell line proliferation (CellTiter-Glo), ASPC1; assay type: cell-based; details: Homo sapiens, ASPC1, 72 h, 72 hr treatment, read-out: ASPC-1 CTG (EC50)
Procedure, shortened: as §1

[5] = test system: SW1990 pancreatic adenocarcinoma cells [homozygous G12D]; assay: Cancer cell line proliferation (CellTiter-Glo), SW1990; assay type: cell-based; details: Homo sapiens, 72 hr treatment, read-out: SW1990 CTG (EC50)
Experimental: The following cancer cell lines were employed: AGS gastric carcinoma [heterozygous G12D](ATCC, CRL-1739); A-427 lung carcinoma [heterozygous G12D](ATCC, HTB-53); ASPC1 pancreatic adenocarcinoma [homozygous G12D](ATCC, CRL-1682) and SW1990 pancreatic adenocarcinoma [homozygous G12D](ATCC CRL-2172). Cell lines were cultured essentially according to ATCC recommendations.
AGS, A-427, ASPC1, SW1990, and GP2D cells were plated in 96-well tissue culture plates at 4,000 cells/well and incubated at 37° C./5% CO2 for 72 hr in 100 μl of media. 3-fold serial dilutions of each test compound were prepared ranging from 20 μM to 1.02 nM. Each cell line was then treated with test compounds at various concentrations with a final concentration of 0.5% DMSO/well, and then incubated at 37° C./5% CO2 for 72 hr. 100 µl of CellTiter-Glo® Reagent (Promega Corporation, Madison, WI) was added to each well and processed according manufacturer's protocol. Results were analyzed and EC50 values were calculated in GraphPad 7 software.

SMILES	EC50 [1]	EC50 [2]	IC50 [3]	EC50 [4]	EC50 [5]
C#Cc1cccc2cccc(-c3ncc4c(N5CC6CCC(C5)N6)nc(OCC5(CN6CCN(Cc7ccc(-n8c(C(=O)NCC(F)(F)F)nnc8-c8cc(C(C)C)c(O)cc8O)cc7)CC6)CC5)nc4c3F)c12 [Compound 54]	< 100 nM	100 to 1000 nM	< 100 nM	100 to 1000 nM	< 100 nM
C#Cc1cccc2cc(O)cc(-c3ncc4c(N5CC6CCC(C5)N6)nc(OC[C@@H]5C[C@H](CN6CCN(Cc7ccc(-n8c(C(=O)NCC(F)(F)F)nnc8-c8cc(C(C)C)c(O)cc8O)cc7)CC6)CN5C)nc4c3F)c12 [Compound 123]	< 100 nM	100 to 1000 nM	< 100 nM	100 to 1000 nM	< 100 nM
C#Cc1cccc2cc(O)cc(-c3ncc4c(N5CC6CCC(C5)N6)nc(OCC5(CN6CCN(Cc7ccc(-n8c(C(=O)NC(C)C(F)(F)F)nnc8-c8cc(C(C)C)c(O)cc8O)cc7)CC6)CC5)nc4c3F)c12 (stereo not drawn) [Compound 155]	100 to 1000 nM	100 to 1000 nM	< 100 nM	100 to 1000 nM	100 to 1000 nM
C#Cc1cccc2cccc(-c3ncc4c(N5CC6CCC(C5)N6)nc(OC[C@@H]5C[C@H](CN6CCN(Cc7ccc8c(c7)CN(C(=O)c7cc(C(C)C)c(O)cc7O)C8)CC6)CN5C)nc4c3F)c12 [Compound 122]	100 to 1000 nM	100 to 1000 nM	< 100 nM	100 to 1000 nM	100 to 1000 nM
C#Cc1cccc2cc(O)cc(-c3ncc4c(N5CC6CCC(C5)N6)nc(OCC5(CN6CCN(CC7CCN(Cc8ccc9c(c8)CN(C(=O)c8cc(C(C)C)c(O)cc8O)C9)CC7)CC6)CC5)nc4c3F)c12 [Compound 117]	< 100 nM	100 to 1000 nM		100 to 1000 nM	< 100 nM
C#Cc1cccc2cc(O)cc(-c3ncc4c(N5CC6CCC(C5)N6)nc(OCC5(CN6CCN(CC7CCN(c8ccc(-n9c(C(=O)NCC)nnc9-c9cc(C(C)C)c(O)cc9O)cc8)CC7)CC6)CC5)nc4c3F)c12 [Compound 124]	< 100 nM	< 100 nM	< 100 nM	100 to 1000 nM	< 100 nM
CCNC(=O)c1nnc(-c2cc(C(C)C)c(O)cc2O)n1-c1ccc(CN2CCC(CN3CCN([C@H]4C[C@@H](COc5nc(N6CC7CCC(C6)N7)c6cnc(-c7cccc(F)c7C)c(F)c6n5)N(C)C4)CC3)CC2)cc1 [Compound 83]	< 100 nM	< 100 nM	> 1000 nM		< 100 nM
C#Cc1c(F)ccc2cc(O)cc(-c3nc(OC)c4c(N5CC6CCC(C5)N6)nc(OCC5(CN6CCN(Cc7ccc8c(c7)CN(C(=O)c7cc(C(C)C)c(O)cc7O)C8)CC6)CC5)nc4c3F)c12 [Compound 190]	< 100 nM		< 100 nM		< 100 nM
C#Cc1c(F)ccc2cc(O)cc(-c3ncc4c(N5CC6CCC(C5)N6)nc(OCC5(CN6CCN(C7CCN(Cc8ccc(-n9c(C(=O)NC(C)C(F)(F)F)nnc9-c9cc(C(C)C)c(O)cc9O)cc8)CC7)CC6)CC5)nc4c3F)c12 (stereo not drawn) [Compound 160]	< 100 nM	< 100 nM		< 100 nM	< 100 nM
C#Cc1cccc2cc(O)cc(-c3ncc4c(N5CC6CCC(C5)N6)nc(OCC5(CN6CCN(CC7CCN(Cc8ccc(-n9c(C(=O)NCC)nnc9-c9cc(C(C)C)c(O)cc9O)cc8)CC7)CC6)CC5)nc4c3F)c12 [Example 2, 4-(4-{[4-({4-[(1-{[(4-{3,8-diazabicyclo[3.2.1]octan-3-yl}-7-(8-ethynyl-3-hydroxynaphthalen-1-yl)-8-fluoropyrido[4,3-d]pyrimidin-2-yl)oxy]methyl}cyclopropyl)methyl]piperazin-1-yl}methyl)piperidin-1-yl]methyl}phenyl)-5-(2,4-dihydroxy-5-isopropylphenyl)-N-ethyl-1,2,4-triazole-3-carboxamide]	< 100 nM	< 100 nM		< 100 nM	< 100 nM
C#Cc1c(F)ccc2cc(O)cc(-c3ncc4c(N5CC6CCC(C5)N6)nc(OCC5(CN6CCC(N7CCN(Cc8ccc(-n9c(C(=O)NC(C)C(F)(F)F)nnc9-c9cc(C(C)C)c(O)cc9O)cc8)CC7)CC6)CC5)nc4c3F)c12 (stereo not drawn) [Compound 181]	< 100 nM		< 100 nM		< 100 nM
C#Cc1c(F)ccc2cc(O)cc(-c3ncc4c(N5CC6CCC(C5)N6)nc(OCC5(CN6CCN(CC7CN(Cc8ccc(-n9c(C(=O)NCC(F)(F)F)nnc9-c9cc(C(C)C)c(O)cc9O)cc8)C7)CC6)CC5)nc4c3F)c12 [Compound 166]	< 100 nM		< 100 nM	< 100 nM	< 100 nM
